# Reference: patent publication US6413913B1, “Thiono-thiochroman and -dihydrobenzothiophene compounds as herbicidal agents” (BASF Corporation, priority 1999, dated 2002)
# Key:
# [1] = tested on: ZEAMX (Corn, Field); assay: Preemergence herbicidal evaluation (crop); assay type: in vivo, Zea mays, L.
# From the text: (§1) In these tests, seeds of a variety of monocotyledonous and dicotyledonous plants are separately mixed with potting soil and planted on top of approximately one inch of soil in separate pint cups. After planting, the cups are sprayed with the selected aqueous acetone solution containing test compound in sufficient quantity to provide the equivalent of about 0.0125 to 0.800 kg per hectare of test compound per cup. The treated cups are then placed on greenhouse benches, watered and cared for in accordance with conventional greenhouse procedures. Approximately two—four weeks after treatment, the tests are terminated and each cup is examined and rated according to the rating system provided in Example 6.
# [2] = tested on: AMBEL (Ragweed, Common); assay: Preemergence herbicidal evaluation; assay type: in vivo, Ambrosia artemisifolia, L.; settings: rated about 2-4 weeks after treatment, scale 0-9
# From the text: as §1
# [3] = tested on: ZEAMX (Corn, Field); assay: Postemergence herbicidal evaluation (crop); assay type: in vivo, Zea mays, L.; settings: rated about 2-3 weeks after treatment, scale 0-9, averaged
# Procedure: (§2) Seedling plants are grown in jiffy flats for about two weeks. The test compounds are dispersed in 80/20 (v/v) acetone/water mixtures containing 1.0% SUN-IT® II, a methylated seed oil, in sufficient quantities to provide the equivalent of about 0.006 kg/ha to 0.800 kg/ha of active compound when applied to the plants through a spray nozzle operating at 40 psi for a predetermined time. After spraying, the plants are placed on greenhouse benches and are cared for in accordance with conventional greenhouse procedures. Approximately two—three weeks after treatment, the seedling plants are examined and rated according to the rating system set forth below. Where more than one test is involved for a given compound, the data are averaged.
# [4] = tested on: ECHCG (Barnyardgrass); assay: Preemergence herbicidal evaluation; assay type: in vivo, Echinochloa crus-galli, (L.) Beau; settings: rated about 2-4 weeks after treatment, scale 0-9
# From the text: as §1
# [5] = tested on: SETVI (Foxtail, Green); assay: Preemergence herbicidal evaluation; assay type: in vivo, Setaria viridis, (L.) Beau; settings: rated about 2-4 weeks after treatment, scale 0-9
# From the text: as §1
# [6] = tested on: ABUTH (Velvetleaf); assay: Preemergence herbicidal evaluation; assay type: in vivo, Abutilon theophrasti, Medic.; settings: rated about 2-4 weeks after treatment, scale 0-9
# From the text: as §1
# [7] = tested on: PANDI (Panicum, Fall); assay: Preemergence herbicidal evaluation; assay type: in vivo, Panicum dichotomiflorum, Michx.; settings: rated about 2-4 weeks after treatment, scale 0-9
# From the text: as §1
# [8] = tested on: AMBEL (Ragweed, Common); assay: Postemergence herbicidal evaluation; assay type: in vivo, Ambrosia artemisifolia, L.; settings: rated about 2-3 weeks after treatment, scale 0-9, averaged
# Procedure: as §2
# [9] = tested on: SETVI (Foxtail, Green); assay: Postemergence herbicidal evaluation; assay type: in vivo, Setaria viridis, (L.) Beau; settings: rated about 2-3 weeks after treatment, scale 0-9, averaged
# Procedure: as §2
# [10] = tested on: IPOHE (Morningglory, Ivyleaf); assay: Preemergence herbicidal evaluation; assay type: in vivo, Ipomoea hederacea, (L) Jacq.; settings: rated about 2-4 weeks after treatment, scale 0-9
# From the text: as §1
# [11] = tested on: IPOHE (Morningglory, Ivyleaf); assay: Postemergence herbicidal evaluation; assay type: in vivo, Ipomoea hederacea, (L) Jacq.; settings: rated about 2-3 weeks after treatment, scale 0-9, averaged
# Procedure: as §2
# [12] = tested on: ABUTH (Velvetleaf); assay: Postemergence herbicidal evaluation; assay type: in vivo, Abutilon theophrasti, Medic.; settings: rated about 2-3 weeks after treatment, scale 0-9, averaged
# Procedure: as §2
# [13] = tested on: PANDI (Panicum, Fall); assay: Postemergence herbicidal evaluation; assay type: in vivo, Panicum dichotomiflorum, Michx.; settings: rated about 2-3 weeks after treatment, scale 0-9, averaged
# Procedure: as §2
# [14] = tested on: ECHCG (Barnyardgrass); assay: Postemergence herbicidal evaluation; assay type: in vivo, Echinochloa crus-galli, (L.) Beau; settings: rated about 2-3 weeks after treatment, scale 0-9, averaged
# Procedure: as §2
# [15] = preemergence, 0.050 kg/ha, rated about 2-4 weeks after treatment, scale 0-9
# [16] = preemergence, 0.100 kg/ha, rated about 2-4 weeks after treatment, scale 0-9
SMILES,Herbicide rating AMBEL ([2]; 0.050 kg/ha),Herbicide rating AMBEL ([2]; 0.100 kg/ha),Herbicide rating ECHCG ([4]; 0.050 kg/ha),Herbicide rating ECHCG ([4]; 0.100 kg/ha),Herbicide rating SETVI ([5]; 0.050 kg/ha),Herbicide rating SETVI ([5]; 0.100 kg/ha),Herbicide rating ABUTH ([6]; 0.050 kg/ha),Herbicide rating ABUTH ([6]; 0.100 kg/ha),Herbicide rating PANDI ([7]; 0.050 kg/ha),Herbicide rating PANDI ([7]; 0.100 kg/ha),Herbicide rating AMBEL ([8]; 0.050 kg/ha),Herbicide rating AMBEL ([8]; 0.100 kg/ha),Herbicide rating SETVI ([9]; 0.050 kg/ha),Herbicide rating SETVI ([9]; 0.100 kg/ha),Herbicide rating IPOHE ([10]; 0.050 kg/ha),Herbicide rating IPOHE ([10]; 0.100 kg/ha),Herbicide rating ABUTH ([12]; 0.050 kg/ha),Herbicide rating ABUTH ([12]; 0.100 kg/ha),Herbicide rating PANDI ([13]; 0.050 kg/ha),Herbicide rating PANDI ([13]; 0.100 kg/ha),further results
CCCS(=O)(=O)Oc1c(C(=S)c2ccc3c(c2C)/C(=N/OC)CCS3(=O)=O)cnn1CC [Example 5],7.0,9.0,6.0,6.0,6.0,6.0,9.0,9.0,7.0,7.0,,,,,,,,,,,"Herbicide rating ZEAMX (crop injury, corn) [1, 15]: 0.0; Herbicide rating ZEAMX (crop injury, corn) [1, 16]: 0.0; Herbicide rating ZEAMX (crop injury, corn) ([3]; 0.050 kg/ha): 0.0; Herbicide rating ZEAMX (crop injury, corn) ([3]; 0.100 kg/ha): 3.0"
CCn1ncc(C(=S)c2ccc3c(c2C)C(C)(C)CS3(=O)=O)c1O [Example 4],2.0,9.0,2.0,9.0,3.0,3.0,6.0,9.0,2.0,7.0,8.0,8.0,4.0,7.0,1.0,1.0,4.0,7.0,3.0,9.0,"Herbicide rating ZEAMX (crop injury, corn) ([1]; in vivo): 0.0; Herbicide rating IPOHE ([11]; 0.050 kg/ha): 4.0; Herbicide rating IPOHE ([11]; 0.100 kg/ha): 4.0; Herbicide rating ECHCG ([14]; 0.050 kg/ha): 8.0; Herbicide rating ECHCG ([14]; 0.100 kg/ha): 8.0"
"CCn1ncc(C(=S)c2ccc3c(c2C)/C(=N/OC)CCS3(=O)=O)c1O [Example 1, 6-[(1-Ethyl-5-hydroxypyrazol-4-yl)thicarbonyl]-5-methylthiochroman-4-one (E) -O-Methyloxime, 1,1-Dioxide]",8.5,8.8,5.8,8.3,6.6,8.4,7.3,9.0,8.0,8.5,8.2,8.4,8.5,9.0,2.5,6.0,7.6,8.0,6.3,6.5,"Herbicide rating ZEAMX (crop injury, corn) [1, 15]: 0.0; Herbicide rating ZEAMX (crop injury, corn) [1, 16]: 0.8; Herbicide rating ZEAMX (crop injury, corn) ([3]; 0.050 kg/ha): 1.2; Herbicide rating ZEAMX (crop injury, corn) ([3]; 0.100 kg/ha): 3.0; Herbicide rating IPOHE ([11]; 0.050 kg/ha): 2.0; Herbicide rating IPOHE ([11]; 0.100 kg/ha): 3.0; Herbicide rating ECHCG ([14]; 0.050 kg/ha): 8.0; Herbicide rating ECHCG ([14]; 0.100 kg/ha): 7.8"
CCn1ncc(C(=S)c2cc(C)c3c(c2C)C(C)(C)CCS3(=O)=O)c1O [Example 2],2.0,3.0,0.0,3.0,4.0,5.0,3.0,9.0,5.0,7.0,6.0,9.0,9.0,9.0,0.0,0.0,9.0,9.0,5.0,4.0,"Herbicide rating ZEAMX (crop injury, corn) ([1]; in vivo): 0.0; Herbicide rating IPOHE ([11]; 0.050 kg/ha): 2.0; Herbicide rating IPOHE ([11]; 0.100 kg/ha): 4.0; Herbicide rating ECHCG ([14]; 0.050 kg/ha): 5.0; Herbicide rating ECHCG ([14]; 0.100 kg/ha): 9.0"
Cc1c(C(=S)c2cnn(C)c2O)ccc2c1C(C)(C)CS2(=O)=O [Example 3],5.5,7.0,7.0,8.5,5.0,7.0,8.0,9.0,6.5,8.0,9.0,8.0,8.0,8.0,2.0,2.0,9.0,8.0,7.0,8.0,"Herbicide rating ZEAMX (crop injury, corn) ([1]; in vivo): 0.0; Herbicide rating ECHCG ([14]; 0.050 kg/ha): 7.0; Herbicide rating ECHCG ([14]; 0.100 kg/ha): 9.0"
